The test system of one assay is 5-KDG reductase. Description: induction of 5-keto reductase activity by carbohydrates in LB media. It counts as cell-based, E. herbicola 21998tkrAΔ3. The note with it: compound as inducer in LB media.
In assay [1] the test system is 2-ketoaldonate reductase [2KR(B)]. Description: induction of 2-keto reductase activity by carbohydrates in LB media. As to conditions: compound as inducer in LB media. Type of assay: cell-based, E. herbicola 21998tkrAΔ3. The text has this: The fact that idonate was still produced in the tkrA^- mutant led to the discovery of a second 2-ketoaldonate reductase [2KR(B)], encoded by an inducible tkrB gene. This protein can be purified from the tkrAΔ3 strain and the gene has been cloned (see below). Evidence that 2KR(A) and 2KR(B) are in fact different enzymes is based on observed differences in protein sequence, molecular weight on SDS gels, subunit composition, migration on native gels, kinetic parameters, and gene sequence. 2KR(B) activity is inducible in LB media by a variety of carbohydrates which are listed on Table 1. […] 2-keto reductase activity is found widely elsewhere in nature. We have also identified 2-keto aldonate reductase activity in both E. coli MM294 and Corynebacterium sp. ATCC 31090, neither of which is known to be ketogenic nor produce 2-KLG as a natural product.

In another assay the target is gluconate dehydrogenase. Description: membrane bound gluconate dehydrogenase assay (crude membrane fraction). The note with it: read-out: Ki, competitive inhibition of gluconate dehydrogenase.
The subject of the next assay is idonate dehydrogenase. Briefly: membrane bound idonate dehydrogenase assay (crude membrane fraction).
A further assay deals with E. herbicola. Briefly: growth on sole carbon source in minimal media. It counts as cell-based. How it is done:
Although a large number of potential metabolic routes from glucose exist, IA is likely produced from either 2-KLG or 5-keto-D-gluconate (5-KDG) catalyzed by a stereospecific pyridine nucleotide-linked reductase. Evidence for both the 5-KDG route in Fusarium species (Takagi, Agric. Biol. Chem. 26:719 [1962]) and the 2-KLG route in a variety of microorganisms has been observed (Makeover et al., supra). Shake flask incubations of whole cells of E. herbicola at 11 OD550 containing 12 g/1 of either 2-KLG or 5-KDG were carried out. Approximately 4 g/1 of IA was produced in flasks containing 2-KLG in 40 hours. The total IA and 2-KLG concentration remained constant throughout the bioconversion. […] Furthermore, E. herbicola was grown using either 5-KDG, G, GA, 2-KDG, or 2,5-DKG as the sole carbon source in minimal media. […] Thus the IA produced in E. herbicola into which an expression vector encoding 2,5-DKG reductase has been transferred is derived from 2-KLG catabolism.

The subject of a further assay is tac promoters. Description: modulation of expression level by sequential increases in IPTG. It counts as cell-based, Erwinia herbicola. The note with it: for 2-KLG + IA/DKG: fractional weight basis relative to 2,5-DKG. On the procedure:
Additional experiments were carried out modulating the expression level by sequential increases in IPTG to induce the tac promoters.
In the table below, IPTG is the concentration of isopropylthio-β-galactoside added to the culture medium. Enzyme activity is the sum of the activities of 2,5-DKG reductase and 2-keto aldonate reductase per mg of protein (measured using the Bradford assay, supra). 2-KLG is measured on gram per gram dry cell weight per hour. Finally, the 2-KLG and idonate is measured on a fractional weight basis relative to 2,5-DKG.

As usually defined, the Ki is the equilibrium dissociation constant of an inhibitor or competing ligand from its target. Broadly, the Km is the substrate concentration at which the rate is half of its maximum.

For the compound `O=C(O)C(=O)[C@@H](O)[C@H](O)C(=O)CO` [2,5-DKG, 2,5-diketo-D-gluconic acid], the “5 KR Spec. Act.” value with 5-KDG reductase was found to be 0.103 µmol/min/mg. Also, the “2 KR Spec. Act.” value in assay [1] turned out to be 0.122 µmol/min/mg.
Take `O=C(O)C(=O)[C@@H](O)[C@H](O)[C@H](O)CO` [2-KDG, 2-keto-D-gluconate]: the inhibitory constant (Ki) at gluconate dehydrogenase was above 10 mM. The “inhibition of idonate dehydrogenase” value in the assay with idonate dehydrogenase (crude membrane fraction) was “but not idonate dehydrogenase”. Moreover, the “5 KR Spec. Act.” value in the assay on 5-KDG reductase worked out at 0.143 µmol/min/mg. For the same compound, the “2 KR Spec. Act.” value in assay [1] was 0.045 µmol/min/mg.
Turning to `O=C(O)C(=O)[C@@H](O)[C@H](O)[C@@H](O)CO` [2-KLG, 2-keto-L-gulonic acid], in the assay with E. herbicola, the “growth using compound as the sole carbon source” value is given as “did not grow”. For the same compound, the inhibitory constant (Ki) on idonate dehydrogenase (read-out: Ki, competitive inhibition of idonate dehydrogenase, crude membrane fraction) came to 13 mM. In addition, the “5 KR Spec. Act.” value with 5-KDG reductase was 0.061 µmol/min/mg. In addition, in assay [1], the “2 KR Spec. Act.” value turned out to be 0.014 µmol/min/mg.
As for `O=C(CO)[C@@H](O)[C@H](O)[C@@H](O)C(=O)O` [5-KDG, 5-keto-D-gluconate], the “5 KR Spec. Act.” value with 5-KDG reductase is 0.105 µmol/min/mg. Also, in assay [1], the “2 KR Spec. Act.” value was found to be 0.119 µmol/min/mg.
For the compound `O=C(CO)[C@@H](O)[C@H](O)[C@H](O)CO` [D-fructose], the “5 KR Spec. Act.” value with 5-KDG reductase was determined as 0.032 µmol/min/mg. Moreover, in assay [1], the “2 KR Spec. Act.” value was 0.028 µmol/min/mg.
For `O=C[C@H](O)[C@@H](O)[C@H](O)[C@H](O)CO` [D-glucose], in that order: 0.27 µmol/min/mg and 0.167 µmol/min/mg.
`OCC(O)CO` [D-glycerol]: in the assay on 5-KDG reductase, the “5 KR Spec. Act.” value was 0.035 µmol/min/mg. In assay [1], the “2 KR Spec. Act.” value came out at 0.024 µmol/min/mg.
For `OC[C@@H](O)[C@@H](O)[C@H](O)[C@H](O)CO` [D-mannitol], in that order: 0.032 µmol/min/mg and 0.027 µmol/min/mg.
In the case of `O=C(O)[C@H](O)[C@@H](O)[C@H](O)[C@H](O)CO` [GA, D-gluconate], the “5 KR Spec. Act.” value with 5-KDG reductase worked out at 0.144 µmol/min/mg. Besides, the “2 KR Spec. Act.” value in assay [1] amounted to 0.020 µmol/min/mg.
Take `O=C(O)[C@H](O)[C@@H](O)[C@H](O)[C@@H](O)CO` [IA, L-idonic acid]: the “growth using compound as the sole carbon source” value with E. herbicola was “did not grow”. The Km in the assay with idonate dehydrogenase (read-out: apparent Km, idonate dehydrogenase activity, pH 6.0, 25° C.) is 20 mM.
As for `CC(C)S[C@@H]1O[C@H](CO)[C@H](O)[C@H](O)[C@H]1O` [IPTG, isopropylthio-β-galactoside], the “2-KLG Prod. Rate” value was found to be 0.000 g/g-DCW-Hr in the assay on tac promoters ([IPTG] 0.001 mM), 0.004 g/g-DCW-Hr in the assay on tac promoters ([IPTG] 0.005 mM), 0.062 g/g-DCW-Hr with tac promoters ([IPTG] 0.050 mM) and 0.126 g/g-DCW-Hr with tac promoters ([IPTG] 0.500 mM). Further, the “Enzyme Activity (sum of 2,5-DKG reductase and 2-keto aldonate reductase)” value in the assay with tac promoters ([IPTG] 0.001 mM) is 0.029 umole/mg-P-min; in the assay with tac promoters ([IPTG] 0.005 mM), 0.051 umole/mg-P-min; with tac promoters ([IPTG] 0.050 mM) it was 0.100 umole/mg-P-min; with tac promoters ([IPTG] 0.500 mM), 0.140 umole/mg-P-min. The “2-KLG + IA/DKG” value is on record as 0.000 with tac promoters ([IPTG] 0.001 mM), 0.025 in the assay on tac promoters ([IPTG] 0.005 mM), 0.350 in the assay on tac promoters ([IPTG] 0.050 mM) and 0.530 with tac promoters ([IPTG] 0.500 mM).

The values are drawn from US5032514A, “Metabolic pathway engineering to increase production of ascorbic acid intermediates” (Genentech, Inc., priority 1988, dated 1991).
